According to patent publication US9376376B2, “Substitute diphenylamine compounds use thereof as antitumor agents” (SINOCHEM CORPORATION, priority 2012, dated 2016):
pIC50: −log10 of the molar value. Like-named read-outs stand apart in the source and are kept apart here. One block for each compound: values may come before it.

Tests used:
hepatocarcinoma SK-HEP-1 = experiment: In vitro cell inhibition assay, CCK-8 method, SK-HEP-1; format: cell-based, human; settings: hepatocarcinoma SK-HEP-1, CCK-8 method, read-out: The half maximal inhibitory concentration (IC50)
Procedure: (§1) After the cell culture flasks gently shaking, culture fluid was discarded in clean bench. […] Cells were collected and transferred to centrifuge tube. For the non-adherent cells HL-60, CCRF-CEM and MOLT-4, cell flasks were picked up from incubator and then transferred to the centrifuge tubes directly. After cells were collected using centrifuge at 1000 rpm/min for 5 min, the fluid was discarded. Then cells were washed for one time by PBS, discard fluid. Then add some medium, count cells under inverted microscope using blood cell counting plate, according the counting number to making the density of adherent cell was 1×10^5 cells/mL, the non-adherent cell was 2×10^5 cells/mL (the volumes of HL-60, CCRF-CEM, MOLT-4 are smaller than non-adherent cells, these cells added to each well was much more higher). Add 50 μL aliquots to each well of 96-well plates (the density of adherent cells was 5000 cells/well, non-adherent cells was 10000 cells/well). Blank control, Negative control, blank control with compounds and positive control wells were grouped, and three replicate wells were used for each data point in the experiments. Then the cells were cultured in 5% incubator for overnight at 37° C., Then the different concentration compounds were added to each well. […] The absorbance (A) of each well was read at 450 nm using a plate reader.

leukemia CCRF-CEM = experiment: In vitro cell inhibition assay, CCK-8 method, CCRF-CEM; format: cell-based, human; settings: read-out: The half maximal inhibitory concentration (IC50)
Procedure: as §1

[1] = system: non-small cell lung cancer NCI-H358; experiment: In vitro cell inhibition assay, CCK-8 method, NCI-H358; format: cell-based, human; settings: Non-small-cell carcinoma NCI-H358, CCK-8 method, read-out: The half maximal inhibitory concentration (IC50)
Procedure: as §1

cervical cancer Hela = experiment: In vitro cell inhibition assay, CCK-8 method, Hela; format: cell-based, human; settings: read-out: The half maximal inhibitory concentration (IC50)
Procedure: as §1

[2] = system: nasopharyngeal carcinoma CNE; experiment: In vitro cell inhibition assay, CCK-8 method, CNE; format: cell-based, human; settings: read-out: The half maximal inhibitory concentration (IC50)
Procedure: as §1

breast cancer MDA-MB-231 = experiment: In vitro cell inhibition assay, CCK-8 method, MDA-MB-231; format: cell-based, human; settings: breast cancer MDA-MB-231, CCK-8 method, read-out: The half maximal inhibitory concentration (IC50)
Procedure: as §1

leukemia HL-60 cells [3] = experiment: In vitro cell inhibition assay, CCK-8 method, HL-60; format: cell-based, human; settings: for pIC50: leukemia HL-60, CCK-8 method, read-out: The half maximal inhibitory concentration (IC50); for Proliferation inhibitory effect of the compounds on HL-60 cells (% of Control): CCK-8 method
Procedure: (§2) After the cell culture flasks gently shaking, culture fluid was discarded in clean bench. […] Cells were collected and transferred to centrifuge tube. For the non-adherent cells HL-60, CCRF-CEM and MOLT-4, cell flasks were picked up from incubator and then transferred to the centrifuge tubes directly. After cells were collected using centrifuge at 1000 rpm/min for 5 min, the fluid was discarded. Then cells were washed for one time by PBS, discard fluid. Then add some medium, count cells under inverted microscope using blood cell counting plate, according the counting number to making the density of adherent cell was 1×10^5 cells/mL, the non-adherent cell was 2×10^5 cells/mL (the volumes of HL-60, CCRF-CEM, MOLT-4 are smaller than non-adherent cells, these cells added to each well was much more higher). Add 50 μL aliquots to each well of 96-well plates (the density of adherent cells was 5000 cells/well, non-adherent cells was 10000 cells/well). Blank control, Negative control, blank control with compounds and positive control wells were grouped, and three replicate wells were used for each data point in the experiments. Then the cells were cultured in 5% incubator for overnight at 37° C., Then the different concentration compounds were added to each well. After incubation for 48 h, according to the manufacturer's instructions, CCK-8 reagent (10 μl) was added and incubation was continued for a further 2-4 h. The absorbance (A) of each well was read at 450 nm using a plate reader.

leukemia MOLT-4 = experiment: In vitro cell inhibition assay, CCK-8 method, MOLT-4; format: cell-based, human; settings: leukemia MOLT-4, CCK-8 method, read-out: The half maximal inhibitory concentration (IC50)
Procedure: as §1

[4] = system: intracranial malignant melanoma A375; experiment: In vitro cell inhibition assay, CCK-8 method, A375; format: cell-based, human; settings: melanoma A375, CCK-8 method, read-out: The half maximal inhibitory concentration (IC50)
Procedure: as §1

prostate cancer PC-3 = experiment: In vitro cell inhibition assay, CCK-8 method, PC-3; format: cell-based, human; settings: Prostate cancer PC-3, CCK-8 method, read-out: The half maximal inhibitory concentration (IC50)
Procedure: as §1

bladder cancer T24 = experiment: In vitro cell inhibition assay, CCK-8 method, T24; format: cell-based, human; settings: bladder cancer T24, CCK-8 method, read-out: The half maximal inhibitory concentration (IC50)
Procedure: as §1

prostate cancer DU-145 = experiment: In vitro cell inhibition assay, CCK-8 method, DU-145; format: cell-based, human; settings: Prostate cancer DU-145, CCK-8 method, read-out: The half maximal inhibitory concentration (IC50)
Procedure: as §1

glioma U251 = experiment: In vitro cell inhibition assay, CCK-8 method, U251; format: cell-based, human; settings: glioma U251, CCK-8 method, read-out: The half maximal inhibitory concentration (IC50)
Procedure: as §1

colon cancer COLO-205 = experiment: In vitro cell inhibition assay, CCK-8 method, COLO-205
colon cancer HT-29 = experiment: In vitro cell inhibition assay, CCK-8 method, HT-29; format: cell-based, human; settings: Colorectal Cancer HT-29, CCK-8 method, read-out: The half maximal inhibitory concentration (IC50)
Procedure: as §1

osteosarcoma MG-63 = experiment: In vitro cell inhibition assay, CCK-8 method, MG-63; format: cell-based, human; settings: osteosarcoma MG-63, CCK-8 method, read-out: The half maximal inhibitory concentration (IC50)
Procedure: as §1

[5] = system: non-small cell lung cancer NCI-H1650; experiment: In vitro cell inhibition assay, CCK-8 method, NCI-H1650; format: cell-based, human; settings: Non-small-cell carcinoma NCI-H1650, CCK-8 method, read-out: The half maximal inhibitory concentration (IC50)
Procedure: as §1

[6] = system: non-small cell lung cancer A549 cells; experiment: In vitro cell inhibition assay, CCK-8 method, A549; format: cell-based, human; settings: for pIC50: Non-small-cell carcinoma A549, CCK-8 method, read-out: The half maximal inhibitory concentration (IC50); for Proliferation inhibitory effect of the compounds on A549 cells (% of Control): 48 h incubation
Procedure: as §2

pancreatic cancer BXPC-3 = experiment: In vitro cell inhibition assay, CCK-8 method, BXPC-3; format: cell-based, human; settings: pancreatic cancer BXPC-3, CCK-8 method, read-out: The half maximal inhibitory concentration (IC50)
Procedure: as §1

leukemia HL-60 cells [7] = experiment: In vitro cell inhibition assay (MTT method), HL-60; format: cell-based, human; settings: 48 h
Procedure: (§3) The human cancer cell lines used for this assay were lung cancer A549 and leukemia HL-60.
(§4) The A549 or HL-60 cells were picked up from cell incubator, after washed for twice using PBS, cells were digested by 0.25% trypsin, and then add medium to terminate the digestion. After cells were collected using centrifuge and re-suspended, count cells under inverted microscope and add medium to make a density was 5×10^4 cells/mL. After 100 μL aliquots were added to each well of 96-well microtiter plates, cells were cultured in 5% incubator for overnight at 37° C., then the different concentration compounds were added to each well. After incubation for 48 h, MTT solution was added to each well and plates were then incubated for 4 h. The MTT tetrazolium was reduced to formazan by living cells. Then the formazan crystals were dissolved though adding DMSO to each well. The absorbance was read at 570 nm with a microplate reader.

lung cancer A549 cell = experiment: In vitro cell inhibition assay (MTT method), A549; format: cell-based, human; settings: 48 h incubation
Procedure: as §3, §4

pIC50 (hepatocarcinoma SK-HEP-1; Homo sapiens, SK-HEP1): 7.33
pIC50 (leukemia CCRF-CEM; Homo sapiens): > 8.00
pIC50 ([1]; Homo sapiens): 6.56
pIC50 (cervical cancer Hela; Homo sapiens): > 8.00
pIC50 ([2]; Homo sapiens): < 4.00
pIC50 (breast cancer MDA-MB-231; Homo sapiens): 5.70
pIC50 (leukemia HL-60 cells [3]; Homo sapiens): > 8.00
pIC50 (leukemia MOLT-4; Homo sapiens): > 8.00
pIC50 ([4]; Homo sapiens, A-375): 4.26
pIC50 (prostate cancer PC-3; Homo sapiens): 4.16
pIC50 (bladder cancer T24; Homo sapiens): 5.45
pIC50 (prostate cancer DU-145; Homo sapiens): 4.76
pIC50 (glioma U251; Homo sapiens, U-251): < 4.00
pIC50 (colon cancer COLO-205; Homo sapiens, COLO 205, read-out: The half maximal inhibitory concentration (IC50)): > 8.00
pIC50 (colon cancer HT-29; Homo sapiens): < 4.00
pIC50 (osteosarcoma MG-63; Homo sapiens): > 8.00
pIC50 ([5]; Homo sapiens): 6.38
pIC50 ([6]; Homo sapiens): 4.08
pIC50 (pancreatic cancer BXPC-3; Homo sapiens): > 8.00
SMILES: CC(=O)O[C@H]1C(=O)[C@@]2(C)[C@H]([C@H](OC(=O)c3ccccc3)[C@]3(O)C[C@H](OC(=O)[C@H](O)[C@@H](NC(=O)c4ccccc4)c4ccccc4)C(C)=C1C3(C)C)[C@]1(OC(C)=O)CO[C@@H]1C[C@@H]2O [Taxol]

SMILES: N#Cc1c(Cl)c(Cl)c(Nc2c(Cl)cc(Cl)cc2Cl)c(C#N)c1Cl [Compound 6-93]
pIC50 (hepatocarcinoma SK-HEP-1): 6.31
pIC50 (leukemia CCRF-CEM): > 8.00
pIC50 [1]: 6.35
pIC50 (cervical cancer Hela): 5.82
pIC50 [2]: 5.22
pIC50 (breast cancer MDA-MB-231): 6.76
Proliferation inhibitory effect of the compounds on HL-60 cells (% of Control) (leukemia HL-60 cells [7]; concentration 0.01 μM): 0 % of Control
Proliferation inhibitory effect of the compounds on HL-60 cells (% of Control) (leukemia HL-60 cells [7]; concentration 0.1 μM): 51.8 % of Control
Proliferation inhibitory effect of the compounds on HL-60 cells (% of Control) (leukemia HL-60 cells [7]; concentration 1 μM): 70.7 % of Control
Proliferation inhibitory effect of the compounds on HL-60 cells (% of Control) (leukemia HL-60 cells [7]; concentration 10 μM): 72.3 % of Control
Proliferation inhibitory effect of the compounds on HL-60 cells (% of Control) (leukemia HL-60 cells [7]; concentration 100 μM): 74.8 % of Control
Proliferation inhibitory effect of the compounds on HL-60 cells (% of Control) (leukemia HL-60 cells [3]; concentration 0.01 μM): 30.19 % of Control
Proliferation inhibitory effect of the compounds on HL-60 cells (% of Control) (leukemia HL-60 cells [3]; concentration 0.1 μM): 44.96 % of Control
Proliferation inhibitory effect of the compounds on HL-60 cells (% of Control) (leukemia HL-60 cells [3]; concentration 1 μM): 82.05 % of Control
Proliferation inhibitory effect of the compounds on HL-60 cells (% of Control) (leukemia HL-60 cells [3]; concentration 10 μM): 87.80 % of Control
Proliferation inhibitory effect of the compounds on HL-60 cells (% of Control) (leukemia HL-60 cells [3]; concentration 100 μM): 93.71 % of Control
pIC50 (leukemia HL-60 cells [3]): 7.07
pIC50 (leukemia MOLT-4): 6.78
pIC50 [4]: 6.80
pIC50 (prostate cancer PC-3): 5.87
pIC50 (bladder cancer T24): 6.22
pIC50 (prostate cancer DU-145): 6.19
pIC50 (glioma U251): 5.79
Proliferation inhibitory effect of the compounds on A549 cell (% of Control) (lung cancer A549 cell; 0.01 μM): 12.1 % of Control
Proliferation inhibitory effect of the compounds on A549 cell (% of Control) (lung cancer A549 cell; 0.1 μM): 39.4 % of Control
Proliferation inhibitory effect of the compounds on A549 cell (% of Control) (lung cancer A549 cell; 1 μM): 74.8 % of Control
Proliferation inhibitory effect of the compounds on A549 cell (% of Control) (lung cancer A549 cell; 10 μM): 80.3 % of Control
Proliferation inhibitory effect of the compounds on A549 cell (% of Control) (lung cancer A549 cell; 100 μM): 98.2 % of Control
pIC50 (colon cancer COLO-205; read-out: The half maximal inhibitory concentration (IC50), Colorectal Cancer COLO-205, CCK-8 method): 6.90
pIC50 (colon cancer HT-29): 6.65
pIC50 (osteosarcoma MG-63): 6.71
pIC50 [5]: 5.86
Proliferation inhibitory effect of the compounds on A549 cells (% of Control) ([6]; CCK-8, 0.01 μM): 14.77 % of Control
Proliferation inhibitory effect of the compounds on A549 cells (% of Control) ([6]; CCK-8, 0.1 μM): 19.35 % of Control
Proliferation inhibitory effect of the compounds on A549 cells (% of Control) ([6]; CCK-8, 1 μM): 70.04 % of Control
Proliferation inhibitory effect of the compounds on A549 cells (% of Control) ([6]; CCK-8, 10 μM): 87.64 % of Control
Proliferation inhibitory effect of the compounds on A549 cells (% of Control) ([6]; CCK-8, 100 μM): 98.18 % of Control
pIC50 [6]: 6.15
pIC50 (pancreatic cancer BXPC-3): 6.48
